Each compound was assayed against T1, HMG-CoA reductase (Homo sapiens, UniProt P04035) (assay: HMG-CoA reductase (HMGCR) degradation in HepG2 cells by western blotting). Conditions: treated for 18 hours, ratio of HMG-CoA reductase to GAPDH, read-out: DC50.
T1 construct: endogenous in cells; host or cells: HepG2 (Korea Cell Line Bank)
T1 sequence (P04035 1-888): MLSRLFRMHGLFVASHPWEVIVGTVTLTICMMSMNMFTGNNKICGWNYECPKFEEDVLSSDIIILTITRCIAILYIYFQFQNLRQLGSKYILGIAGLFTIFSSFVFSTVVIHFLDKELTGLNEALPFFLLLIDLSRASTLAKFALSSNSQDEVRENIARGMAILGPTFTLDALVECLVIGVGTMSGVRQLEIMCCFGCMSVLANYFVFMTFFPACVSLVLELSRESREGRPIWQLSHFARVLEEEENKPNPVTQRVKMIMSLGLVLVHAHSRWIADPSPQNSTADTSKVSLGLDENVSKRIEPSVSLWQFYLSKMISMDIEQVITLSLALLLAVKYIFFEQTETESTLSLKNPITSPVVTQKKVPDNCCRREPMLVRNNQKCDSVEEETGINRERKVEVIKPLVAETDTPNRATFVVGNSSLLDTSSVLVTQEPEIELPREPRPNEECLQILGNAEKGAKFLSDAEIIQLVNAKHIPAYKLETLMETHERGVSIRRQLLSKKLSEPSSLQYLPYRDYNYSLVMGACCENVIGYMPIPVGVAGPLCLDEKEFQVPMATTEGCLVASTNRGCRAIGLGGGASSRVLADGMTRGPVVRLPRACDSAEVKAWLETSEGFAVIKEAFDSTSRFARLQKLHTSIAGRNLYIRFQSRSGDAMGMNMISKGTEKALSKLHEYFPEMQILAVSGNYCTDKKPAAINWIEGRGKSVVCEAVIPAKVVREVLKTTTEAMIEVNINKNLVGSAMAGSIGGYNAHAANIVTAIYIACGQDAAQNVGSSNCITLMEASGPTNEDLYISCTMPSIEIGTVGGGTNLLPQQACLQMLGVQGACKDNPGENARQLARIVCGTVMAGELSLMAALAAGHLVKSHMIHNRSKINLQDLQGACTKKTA
Type: cell-based
Outline: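 HepG2 cells (passage P105–P110) treated 18 hours with compounds in 10-point three-fold dilutions from 3 μM. RIPA lysates (15 μg protein, BCA-quantified) run on SDS-PAGE and immunoblotted for HMGCR (1:500) with GAPDH (1:20000) as loading control, primary antibodies 16 hours at 4° C.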
With C[C@H]1C=C2C=C[C@H](C)[C@H](CC[C@@H]3C[C@@H](O[Si](C)(C)C(C)(C)C)CC(=O)O3)[C@H]2[C@@H](OC(=O)NCCOCC(=O)NCC(=O)Nc2cccc3c2C(=O)N(C2CCC(=O)NC2=O)C3=O)C1 (stereo partly drawn) [Compound 144, (1S,3R,7S,8S,8aR)-8-(2-((2R,4R)-4-((tert-butyldimethylsilyl)oxy)-6-oxotetrahydro-2H-pyran-2-yl)ethyl)-3,7-dimethyl-1,2,3,7,8,8a-hexahydronaphthalen-1-yl (2-(2-((2-((2-(2,6-dioxopiperidin-3-yl)-1,3-dioxoisoindolin-4-yl)amino)-2-oxoethyl)amino)-2-oxoethoxy)ethyl)carbamate] the DC50 was 50 to 500 nM. C[C@H]1C=C2C=C[C@H](C)[C@H](CC[C@@H]3C[C@@H](O)CC(=O)O3)[C@H]2[C@@H](OC(=O)NCCOCC(=O)NCC(=O)Nc2cccc3c2C(=O)N(C2CCC(=O)NC2=O)C3=O)C1 (stereo partly drawn) [Compound 145, (1S,3R,7S,8S,8aR)-8-(2-((2R,4R)-4-hydroxy-6-oxotetrahydro-2H-pyran-2-yl)ethyl)-3,7-dimethyl-1,2,3,7,8,8a-hexahydronaphthalen-1-yl (2-(2-((2-((2-(2,6-dioxopiperidin-3-yl)-1,3-dioxoisoindolin-4-yl)amino)-2-oxoethyl)amino)-2-oxoethoxy)ethyl)carbamate] showed a DC50 of under 50 nM. C[C@H]1C=C2C=C[C@H](C)[C@H](CC[C@@H]3C[C@@H](O[Si](C)(C)C(C)(C)C)CC(=O)O3)[C@H]2[C@@H](OC(=O)NCCc2ccc(CC(=O)Nc3cccc4c3C(=O)N(C3CCC(=O)NC3=O)C4=O)cc2)C1 (stereo partly drawn) [Compound 146, (1S,3R,7S,8S,8aR)-8-(2-((2R,4R)-4-((tert-butyldimethylsilyl)oxy)-6-oxotetrahydro-2H-pyran-2-yl)ethyl)-3,7-dimethyl-1,2,3,7,8,8a-hexahydronaphthalen-1-yl (4-(2-((2-(2,6-dioxopiperidin-3-yl)-1,3-dioxoisoindolin-4-yl)amino)-2-oxoethyl)phenethyl)carbamate] was tested, and the DC50 was under 50 nM. Work on C[C@H]1C=C2C=C[C@H](C)[C@H](CC[C@@H]3C[C@@H](O)CC(=O)O3)[C@H]2[C@@H](OC(=O)NCCc2ccc(CC(=O)Nc3cccc4c3C(=O)N(C3CCC(=O)NC3=O)C4=O)cc2)C1 (stereo partly drawn) [Compound 147, (1S,3R,7S,8S,8aR)-8-(2-((2R,4R)-4-hydroxy-6-oxotetrahydro-2H-pyran-2-yl)ethyl)-3,7-dimethyl-1,2,3,7,8,8a-hexahydronaphthalen-1-yl (4-(2-((2-(2,6-dioxopiperidin-3-yl)-1,3-dioxoisoindolin-4-yl)amino)-2-oxoethyl)phenethyl)carbamate] yielded a DC50 of under 50 nM. C[C@H]1C=C2C=C[C@H](C)[C@H](CC[C@@H]3C[C@@H](O)CC(=O)O3)[C@H]2[C@@H](OC(=O)C(C)(C)CCC(=O)NCCOCCOCCNc2cccc3nnn(C4CCC(=O)NC4=O)c(=O)c23)C1 (stereo partly drawn) [Compound 152, (1S,3R,7S,8S,8aR)-8-(2-((2R,4R)-4-hydroxy-6-oxotetrahydro-2H-pyran-2-yl)ethyl)-3,7-dimethyl-1,2,3,7,8,8a-hexahydronaphthalen-1-yl 5-((2-(2-(2-((3-(2,6-dioxopiperidin-3-yl)-4-oxo-3,4-dihydrobenzo[d][1,2,3]triazin-5-yl)amino)ethoxy)ethoxy)ethyl)amino)-2,2-dimethyl-5-oxopentanoate] was tested, and the DC50 was under 50 nM. In the case of C[C@H]1C=C2C=C[C@H](C)[C@H](CC[C@@H]3CC=CC(=O)O3)[C@H]2[C@@H](OC(=O)NCCOCCOCCNc2cccc3c2C(=O)N(C2CCC(=O)NC2=O)C3=O)C1 (stereo partly drawn) [Compound 153, (1S,3R,7S,8S,8aR)-3,7-dimethyl-8-(2-((R)-6-oxo-3,6-dihydro-2H-pyran-2-yl)ethyl)-1,2,3,7,8,8a-hexahydronaphthalen-1-yl (2-(2-(2-((2-(2,6-dioxopiperidin-3-yl)-1,3-dioxoisoindolin-4-yl)amino)ethoxy)ethoxy)ethyl)carbamate], the DC50 is reported as under 50 nM. Cc1ncsc1-c1ccc(CNC(=O)[C@@H]2C[C@@H](O)CN2C(=O)[C@@H](NC(=O)CCCCCCCCCCNC(=O)O[C@H]2C[C@@H](C)C=C3C=C[C@H](C)[C@H](CC[C@@H](O)C[C@@H](O)CC(=O)O)[C@H]32)C(C)(C)C)cc1 [Compound 154, (3R,5R)-3,5-dihydroxy-7-((1S,2S,6R,8S,8aR)-8-(((11-(((S)-1-((2S,4R)-4-hydroxy-2-((4-(4-methylthiazol-5-yl)benzyl)carbamoyl)pyrrolidin-1-yl)-3,3-dimethyl-1-oxobutan-2-yl)amino)-11-oxoundecyl)carbamoyl)oxy)-2,6-dimethyl-1,2,6,7,8,8a-hexahydronaphthalen-1-yl)heptanoic acid] was tested, and the DC50 was over 500 nM. For C[C@H]1C=C2C=C[C@H](C)[C@H](CC[C@@H]3C[C@@H](O[Si](C)(C)C(C)(C)C)CC(=O)O3)[C@H]2[C@@H](OC(=O)NCCOCCOCCNc2cccc3nnn(C4CCC(=O)NC4=O)c(=O)c23)C1 (stereo partly drawn) [Compound 155, (1S,3R,7S,8S,8aR)-8-(2-((2R,4R)-4-((tert-butyldimethylsilyl)oxy)-6-oxotetrahydro-2H-pyran-2-yl)ethyl)-3,7-dimethyl-1,2,3,7,8,8a-hexahydronaphthalen-1-yl (2-(2-(2-((3-(2,6-dioxopiperidin-3-yl)-4-oxo-3,4-dihydrobenzo[d][1,2,3]triazin-5-yl)amino)ethoxy)ethoxy)ethyl)carbamate], the DC50 was under 50 nM. For C[C@H]1C=C2C=C[C@H](C)[C@H](CC[C@@H]3C[C@@H](O)CC(=O)O3)[C@H]2[C@@H](OC(=O)NCCOCCOCCNc2cccc3nnn(C4CCC(=O)NC4=O)c(=O)c23)C1 (stereo partly drawn) [Compound 156, (1S,3R,7S,8S,8aR)-8-(2-((2R,4R)-4-hydroxy-6-oxotetrahydro-2H-pyran-2-yl)ethyl)-3,7-dimethyl-1,2,3,7,8,8a-hexahydronaphthalen-1-yl (2-(2-(2-((3-(2,6-dioxopiperidin-3-yl)-4-oxo-3,4-dihydrobenzo[d][1,2,3]triazin-5-yl)amino)ethoxy)ethoxy)ethyl)carbamate], the DC50 was under 50 nM. C[C@H]1C=C2C=C[C@H](C)[C@H](CC[C@@H]3C[C@@H](O)CC(=O)O3)[C@H]2[C@@H](OC(=O)NCCCOCCOCCOCCCNc2cccc3c2C(=O)N(C2CCC(=O)NC2=O)C3=O)C1 (stereo partly drawn) [Compound 157, (1S,3R,7S,8S,8aR)-8-(2-((2R,4R)-4-hydroxy-6-oxotetrahydro-2H-pyran-2-yl)ethyl)-3,7-dimethyl-1,2,3,7,8,8a-hexahydronaphthalen-1-yl (3-(2-(2-(3-((2-(2,6-dioxopiperidin-3-yl)-1,3-dioxoisoindolin-4-yl)amino)propoxy)ethoxy)ethoxy)propyl)carbamate] was tested, and the DC50 was under 50 nM. In the case of Cc1ncsc1-c1ccc(CNC(=O)[C@@H]2C[C@@H](O)CN2C(=O)[C@@H](NC(=O)CCCCCCCNC(=O)O[C@H]2C[C@@H](C)C=C3C=C[C@H](C)[C@H](CC[C@@H]4C[C@@H](O)CC(=O)O4)[C@H]32)C(C)(C)C)cc1 [Compound 158, (1S,3R,7S,8S,8aR)-8-(2-((2R,4R)-4-hydroxy-6-oxotetrahydro-2H-pyran-2-yl)ethyl)-3,7-dimethyl-1,2,3,7,8,8a-hexahydronaphthalen-1-yl (8-(((S)-1-((2S,4R)-4-hydroxy-2-((4-(4-methylthiazol-5-yl)benzyl)carbamoyl)pyrrolidin-1-yl)-3,3-dimethyl-1-oxobutan-2-yl)amino)-8-oxooctyl)carbamate], the DC50 is reported as under 50 nM. For Cc1ncsc1-c1ccc(CNC(=O)[C@@H]2C[C@@H](O)CN2C(=O)[C@@H](NC(=O)CCCCCCCCCCNC(=O)O[C@H]2C[C@@H](C)C=C3C=C[C@H](C)[C@H](CC[C@@H]4C[C@@H](O)CC(=O)O4)[C@H]32)C(C)(C)C)cc1 [Compound 160, (1S,3R,7S,8S,8aR)-8-(2-((2R,4R)-4-hydroxy-6-oxotetrahydro-21H-pyran-2-yl)ethyl)-3,7-dimethyl-1,2,3,7,8,8a-hexahydronaphthalen-1-yl (11-(((S)-1-((2S,4R)-4-hydroxy-2-((4-(4-methylthiazol-5-yl)benzyl)carbamoyl)pyrrolidin-1-yl)-3,3-dimethyl-1-oxobutan-2-yl)amino)-11-oxoundecyl)carbamate], the DC50 was under 50 nM.

Source: US12479840B2, “HMG-CoA reductase degradation inducing compound” (Uppthera, priority 2020, dated 2025)
